According to patent publication US9295732B2, “Conjugated TLR7 and/or TLR8 and TLR2 polycationic agonists” (CAYLA, priority 2013, dated 2016):
Several values for one entry are separate records, joined by “and”; a condition that tells them apart may be missing. Identical values can stand only once.

How the values were obtained:
[1] = Nanoparticle (lipoplex) size by dynamic light scattering; conditions: 25° C., triplicate; for Mean Diameter: complexes with pDNA 3:24 (w:w), dynamic light scattering; for PDI: polydispersity index of complexes with pDNA 3:24 (w:w);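 on all read-outs here: lipoplexes of TLR7-TLR2 polyamine conjugates with plasmid DNA, formed over 30 min at room temperature in serum-free medium or 5% glucose, diameter in nm, PDI dimensionless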
[2] = system: plasmid DNA (pDNA); test: Gel shift (mobility shift) assay of pDNA complexation; format: binding; conditions: pDNA:molecule ratio 3:24 (w:w), 0.8% agarose gel, compared to pDNA alone
Summary of the method: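 Complexes of pDNA with TLR7-TLR2 polyamine molecules run on 0.8% agarose in TAE at 135 V for 21 min, ethidium bromide stained and viewed under UV. Complexation scored as partial or complete retardation of pDNA migration versus pDNA alone, complexed pDNA appearing as a smear in wells.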

[3] = molecular target: T1, human TLR2 (Homo sapiens, UniProt O60603); test: HEK-Blue hTLR2 NF-κB/AP-1 SEAP reporter assay; format: cell-based; conditions: HEK-Blue hTLR2 cells, 10 μg/mL to 10 pg/ml, 24 hours, OD at 655 nm, FIG. 3
T1 construct: host or cells: HEK293 (HEK-Blue™ hTLR2)
T1 sequence (O60603 21-784): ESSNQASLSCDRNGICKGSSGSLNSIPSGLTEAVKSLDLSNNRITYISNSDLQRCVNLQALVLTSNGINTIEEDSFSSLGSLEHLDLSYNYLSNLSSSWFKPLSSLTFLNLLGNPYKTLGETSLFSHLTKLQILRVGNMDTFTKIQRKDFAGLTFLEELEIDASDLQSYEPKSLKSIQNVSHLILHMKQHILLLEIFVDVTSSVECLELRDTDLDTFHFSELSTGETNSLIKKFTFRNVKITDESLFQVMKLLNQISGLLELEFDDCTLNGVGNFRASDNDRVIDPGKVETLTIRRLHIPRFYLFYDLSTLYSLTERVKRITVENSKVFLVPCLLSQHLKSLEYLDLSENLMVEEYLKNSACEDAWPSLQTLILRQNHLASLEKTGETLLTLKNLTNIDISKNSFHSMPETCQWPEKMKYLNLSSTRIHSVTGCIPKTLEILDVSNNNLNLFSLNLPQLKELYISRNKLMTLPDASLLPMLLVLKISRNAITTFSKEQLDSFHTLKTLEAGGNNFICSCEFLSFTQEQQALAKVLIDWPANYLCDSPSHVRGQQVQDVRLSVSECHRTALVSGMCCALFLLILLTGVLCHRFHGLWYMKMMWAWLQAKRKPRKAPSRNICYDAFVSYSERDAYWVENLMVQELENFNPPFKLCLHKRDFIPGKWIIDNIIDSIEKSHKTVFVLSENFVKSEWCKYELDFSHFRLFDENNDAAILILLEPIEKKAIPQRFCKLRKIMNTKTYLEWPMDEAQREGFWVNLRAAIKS
Summary of the method: (§1)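 HEK293 cells stably expressing the given TLR, or RAW 264.7-derived cells (50,000 or 100,000 cells/well respectively), carry an NF-κB/AP-1-inducible SEAP reporter. Conjugated TLR7-TLR2 agonists at final 10 μg/mL to 10 pg/ml, 24 h at 37° C. SEAP read colorimetrically as OD at 655 nm in detection medium.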

[4] = system: endogenous TLR2 and TLR7 in RAW-Blue™ Cells; test: RAW-Blue Cells NF-κB/AP-1 SEAP reporter assay; format: cell-based, mouse; conditions: 24 hours, OD at 655 nm, FIG. 4
Summary of the method: as §1

[5] = system: B16-F1 cells; test: Cell transfection with SEAP plasmid, B16-F1; format: cell-based, mouse; conditions: in complex with pVitro14 LGFP SEAP plasmid, 48 hours, SEAP expression; FIG. 5B
Description: (§2) The TLR7-TLR2 molecules were tested for their ability as polyamine molecules to transport plasmid DNA (pDNA) into cells. The pVitro14 LGFP SEAP plasmid (InvivoGen) was complexed to TLR7-TLR2 polyamine molecules and to the control cationic lipid transfection agent, LyoVec™ (InvivoGen). The human HEK293 (ATCC, CRL-1573) and mouse B16-F1 melanoma (ATCC, CRL-6323) cell lines were seeded at a density of 50 000 cells/well and 20 000 cells/well respectively, in the absence or presence of different volumes of the plasmid encoding for the SEAP protein in complex with TLR7-TLR2 polyamine molecules for 48 hours at 37° C. and 10% CO2. Transfection efficiency was assessed by measuring SEAP reporter gene expression: 20 μl of supernatant was sampled and mixed with 180 μl of QUANTI-Blue™ Detection (InvivoGen). In the presence of alkaline phosphatase SEAP, the color of QUANTI-Blue™ changes from pink to purple/blue. The intensity of the blue hue reflects the activity of SEAP. The levels of SEAP secretion were determined quantitatively by reading the OD at 620-655 nm using a spectrophotometer, iMark™ Microplate Reader (BIO-RAD).

[6] = system: HEK293 cells; test: Cell transfection with SEAP plasmid, HEK293; format: cell-based, human; conditions: in complex with pVitro14 LGFP SEAP plasmid, 48 hours, SEAP expression; FIG. 5A
Description: as §2

Mean Diameter [1] | PDI [1] | ability to activate hTLR2 [3] | Compound | ability to complex pDNA (retardation of pDNA migration in agarose gel) [2] | ability to activate endogenous TLR2 and TLR7 in RAW-Blue Cells [4] | ability to transfect B16-F1 cells [5] | ability to transfect HEK293 cells [6]
249.1 nm and 309.6 nm and 258.3 nm | 0.303 and 0.354 and 0.372 | activate hTLR2 | CCCCCCCCCCCCCCCC(=O)OCC(CSC[C@H](N)C(=O)N[C@@H](COC(=O)c1ccc(Cn2c(O)nc3c(N)nc(NCCCC)nc32)cc1)C(=O)NCCCNCCCCNCCCN)OC(=O)CCCCCCCCCCCCCCC (stereo partly drawn) [CL514, (6R,9S)-6,23-diamino-9-((4-((6-amino-2-(butylamino)-8-hydroxy-9H-purin-9-yl)methyl)benzoyloxy)methyl)-7,10-dioxo-4-thia-8,11,15,20-tetraazatricosane-1,2-diyl dipalmitate] | inability to migrate through an agarose gel | activate endogenous TLR2 and TLR7 | transfect B16-F1 cells | transfect HEK293 cells
175.1 nm and 156.9 nm and 168.3 nm | 0.253 and 0.239 and 0.258 | activate hTLR2 | CCCCCCCCCCCCCCCC(=O)OCC(CSC[C@H](N)C(=O)N[C@@H](CCC(=O)NCCCNCCCCNCCCN)C(=O)Nc1ccc(Cn2c(O)nc3c(N)nc(NCCCC)nc32)cc1)OC(=O)CCCCCCCCCCCCCCC (stereo partly drawn) [CL527, (6R,9S)-6,25-diamino-9-(4-((6-amino-2-(butylamino)-8-hydroxy-9H-purin-9-yl)methyl)phenylcarbamoyl)-7,12-dioxo-4-thia-8,13,17,22-tetraazapentacosane-1,2-diyl dipalmitate] | inability to migrate through an agarose gel | activate endogenous TLR2 and TLR7 | transfect B16-F1 cells | transfect HEK293 cells
170.0 nm and 190.0 nm and 180.2 nm | 0.226 and 0.230 and 0.237 | activate hTLR2 | CCCCCCCCCCCCCCCC(=O)OCC(CSC[C@H](N)C(=O)NCCCNCCCCNCCCNC(=O)CNC(=O)c1ccc(Cn2c(O)nc3c(N)nc(NCCCC)nc32)cc1)OC(=O)CCCCCCCCCCCCCCC (stereo partly drawn) [CL553, (20R)-20-amino-1-(4-((6-amino-2-(butylamino)-8-hydroxy-9H-purin-9-yl)methyl)phenyl)-1,4,19-trioxo-22-thia-2,5,9,14,18-pentaazapentacosane-24,25-diyl dipalmitate] | inability to migrate through an agarose gel | activate endogenous TLR2 and TLR7 | transfect B16-F1 cells | transfect HEK293 cells

Compound | Mean Diameter [1] | PDI [1] | ability to activate hTLR2 [3] | ability to complex pDNA (retardation of pDNA migration in agarose gel) [2] | ability to activate endogenous TLR2 and TLR7 in RAW-Blue Cells [4] | ability to transfect B16-F1 cells [5] | ability to transfect HEK293 cells [6]
CCCCCCCCCCCCCCCC(=O)N[C@@H](CSCC(COC(=O)CCCCCCCCCCCCCCC)OC(=O)CCCCCCCCCCCCCCC)C(=O)N[C@@H](CO)C(=O)N[C@@H](CCCCN)C(=O)N[C@@H](CCCCN)C(=O)N[C@@H](CCCCN)C(=O)N[C@@H](CCCCN)C(=O)Nc1ccc(Cn2c(O)nc3c(N)nc(NCCCC)nc32)cc1 (stereo partly drawn) [CL534, ((6R,9S,12S,15S,18S,21S)-25-amino-21-(4-((6-amino-2-(butylamino)-8-hydroxy-9H-purin-9-yl)methyl)phenylcarbamoyl)-12,15,18-tris(4-aminobutyl)-9-(hydroxylmethyl)-7,10,13,16,19-pentaoxo-6-palmitamido-4-thia-8,11,14,17,20-pentaazapentacosane-1,2-diyl dipalmitate] |  |  | activate hTLR2 | inability to migrate through an agarose gel | activate endogenous TLR2 and TLR7 | lack the ability to transfect cells | lack the ability to transfect cells
(6S,9S,12S,15S,18S,21R)-6,25-diamino-21-(4-((6-amino-2-(butylamino)-8-hydroxy-9H-purin-9-yl)methyl)phenylcarbamoyl)-12,15,18-tris(4-aminobutyl)-9-(hydroxyl methyl)-7,10,13,16,19-pentaoxo-4-thia-8,11,14,17,20-pentaazapentacosane-1,2-diyl dipalmitate [CL413] |  |  | activate hTLR2 | inability to migrate through an agarose gel | activate endogenous TLR2 and TLR7 | lack the ability to transfect cells | lack the ability to transfect cells
